Positions count from the first letter of the chain named. Entries after “also recorded” stand apart in the source; their conditions may differ. Like-named read-outs stand apart in the source and are kept apart here.
Key:
[1] = system: Gal4-ERR3 mutants (A272F, A272L, F435L, L345I-F435L-F450L); assay: Transient transfection luciferase reporter assay, mutant Gal4-ERR3 fusion proteins in COS-1 cells; assay type: cell-based, human; settings: 10^−6M 4-OHT
Description: (§1) COS-1 and BHK cells were cultured in DMEM supplemented with 5% FCS, penicillin, streptomycin, and glutamine. Neuro2A cells were cultured in EMEM supplemented with 10% FCS, penicillin, streptomycin, glutamine, and non-essential amino acids. Transient transfection assays were carried out in 24-well plates (0.5×10^5 cells per well for COS-1 and Neuro2A cells, 0.25×10^5 cells per well for BHK cells) using the standard calcium phosphate coprecipitation technique as described in Greiner et al. (Greiner et al., 1996). Cells were transfected with 250 ng of Gal4(5×)-TATA-LUC, Gal4(3×)-TK-LUC, or ERE(2×)-TK-LUC reporter plasmid and 50 ng per well of pCMX-Gal4-ERR3 or pCMX-ERR3 expression plasmid. The empty plasmids pCMX-Gal4 and pCMX served as control. […] Luciferase activity was assayed as described in Greiner et al. (1996). All experiments were repeated at least three times.
(§2) Finally, it has been asked whether ERR3 could activate transcription independently of a putative endogenous ligand. The wt and mutant ERR3 LBDs were fused to the DNA-binding domain of Gal4, and Gal4-ERR3 fusion proteins were tested for their potential to activate transcription in transient transfection assays using synthetic reporters in eukaryotic cell lines. […]

[2] = biological target: full length ERR3 (Homo sapiens, UniProt P62508); assay: Transient transfection with ERE(2×)-TK-LUC reporter, full length ERR3; assay type: cell-based; settings: in the presence of 4-OHT
Description: as §1

[3] = system: ERR1, ERR2 and ERR3; settings: Coward et al., 2001 / reported, cited from earlier work
[4] = biological target: T1, ERR3 (Homo sapiens, UniProt P62508); settings: Coward et al. (2001); cited from earlier work
T1 sequence (P62508 1-458): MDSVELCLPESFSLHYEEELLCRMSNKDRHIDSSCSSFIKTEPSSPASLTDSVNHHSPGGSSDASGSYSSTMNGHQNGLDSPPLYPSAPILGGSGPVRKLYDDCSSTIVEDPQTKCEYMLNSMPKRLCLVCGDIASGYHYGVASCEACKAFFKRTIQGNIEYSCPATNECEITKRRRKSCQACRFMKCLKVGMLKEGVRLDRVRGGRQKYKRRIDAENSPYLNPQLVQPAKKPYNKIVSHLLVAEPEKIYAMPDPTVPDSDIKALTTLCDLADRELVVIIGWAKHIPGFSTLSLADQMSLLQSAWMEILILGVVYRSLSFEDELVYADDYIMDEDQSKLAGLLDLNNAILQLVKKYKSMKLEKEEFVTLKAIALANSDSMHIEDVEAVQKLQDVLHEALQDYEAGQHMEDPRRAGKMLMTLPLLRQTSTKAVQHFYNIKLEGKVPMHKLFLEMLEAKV

[5] = biological target: T2, Gal4-ERR3 (Homo sapiens, UniProt P62508); assay: Transient transfection luciferase reporter assay, Gal4-ERR3 (wt LBD) in COS-1 cells; assay type: cell-based
T2 construct: cDNA fragments encoding wt or mutant ERR3 LBDs (residues 229 to 458, human and murine receptor are identical) were generated by PCR; expressed in transfected cells; host or cells: COS-1 cells (also Neuro2A and BHK)
T2 sequence (P62508 229-458): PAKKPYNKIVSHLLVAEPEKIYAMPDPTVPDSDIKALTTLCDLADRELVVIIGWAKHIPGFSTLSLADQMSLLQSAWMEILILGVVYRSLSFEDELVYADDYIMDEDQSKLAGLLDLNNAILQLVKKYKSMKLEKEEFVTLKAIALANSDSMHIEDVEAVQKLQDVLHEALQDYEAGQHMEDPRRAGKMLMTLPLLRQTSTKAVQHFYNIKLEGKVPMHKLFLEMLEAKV
Description: as §1, §2

[6] = biological target: T3, His-tagged ERR3 LBD / GST-tagged SRC-1 RID complex (Homo sapiens, UniProt P62508); assay: In vitro protein-protein interaction assay, wt ERR3 LBD with SRC-1 RID (native gel); assay type: biochemical; settings: 10^−4M ligand
T3 construct: cDNA fragments encoding wt or mutant ERR3 LBDs (residues 229 to 458, human and murine receptor are identical) were generated by PCR; made in house; host or cells: E. coli BL21 (DE3)
T3 sequence (P62508 229-458): T2 sequence (P62508 229-458)
Description: (§3) The His-tagged wt or mutant ERR3 LBDs, the GST-tagged SRC-1 RID, and GST were expressed in E. coli BL21 (DE3) and partially purified by affinity chromatography using TALON (Clontech) or Glutathione Sepharose 4B (Pharmacia), respectively. […] After purification the proteins were dialyzed in assay buffer (20 mM Tris.HCl pH 8.0, 200 mM NaCl), and concentrated. For the protein-protein interaction assays […] (about 70 pmol) of His-tagged wt or mutant ERR3 LBD were mixed with […] (about 100 pmol) of GST-tagged SRC-1 RID or […] of GST and incubated on ice for 10 mins. […] Protein complexes were resolved on native polyacrylamide gradient gels (8%-25%) using the Phast System (Pharmacia).
(§4) In vitro interaction assays with the RID (amino acids 617-764) of the coactivator SRC-1 has first been performed. Hexahistidine (His)-tagged ERR3, LBD and GST-tagged SRC-1 RID were partially purified by affinity chromatography, the proteins were mixed, and complex formation was monitored on native polyacrylamide gels. […] Complexes were separated on native polyacrylamide gradient gels.

[7] = system: mutant ERR3 LBDs (A272F, A272L, F435L, L345I, L345I-F435L, L345I-F435L-F450L) / GST-SRC-1 RID complex; assay: In vitro protein-protein interaction assay, mutant ERR3 LBDs with SRC-1 RID (native gel); assay type: biochemical, human; settings: 10^−4M 4-OHT
Description: as §3, §4
In addition, the ligand-binding pocket of ERR3 has been enlarged by either mutating F435 to leucine or by introducing a triple point mutation (L345I-F435L-F450L) which creates an “ERα-like” ligand-binding pocket.

[8] = biological target: T1, ERR3; settings: Coward et al. (2001); cited from earlier work; remark: listed apart in the source
[9] = biological target: T4, ERRα (Homo sapiens, UniProt P11474); settings: micromolar concentrations; Yang and Chen (1999); cited from earlier work
T4 sequence (P11474 1-423): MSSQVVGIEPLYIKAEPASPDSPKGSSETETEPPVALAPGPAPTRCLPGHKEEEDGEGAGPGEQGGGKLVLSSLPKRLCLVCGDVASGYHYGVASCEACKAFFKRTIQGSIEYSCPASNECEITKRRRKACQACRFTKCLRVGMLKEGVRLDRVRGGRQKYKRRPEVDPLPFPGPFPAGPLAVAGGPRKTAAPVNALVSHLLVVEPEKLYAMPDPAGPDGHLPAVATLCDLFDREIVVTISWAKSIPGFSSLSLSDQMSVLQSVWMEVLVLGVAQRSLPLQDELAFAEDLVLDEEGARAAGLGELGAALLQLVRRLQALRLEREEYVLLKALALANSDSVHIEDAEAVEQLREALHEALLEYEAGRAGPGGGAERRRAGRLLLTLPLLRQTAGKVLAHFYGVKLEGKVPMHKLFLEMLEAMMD

[10] = biological target: T5, ERR1 mutant F328 to alanine (Homo sapiens, UniProt P11474, F232A); settings: Chen S et al., 2001; cited from earlier work
T5 sequence (P11474 1-423 F232A): T4 sequence (P11474 1-423) with F232A

Row | Molecule | transcriptional activity of Gal4-ERR3 mutants ([1]; Gal4-ERR3(A272F) or Gal4-ERR3(A272L)) | transcriptional activity of Gal4-ERR3 mutants ([1]; Gal4-ERR3(F435L) and Gal4-ERR3(L345I-F435L-F450L)) | active repression of transcription of the TK promoter by full length ERR3 [2] | binding to ERR isotypes ([3]; listed as 40HT) | binding to ERR isotypes [3] | affinity of binding to ERR3 [4] | repression of Gal4-ERR3 constitutive activity below basal levels of the TK promoter ([5]; Gal4(3×)-TK-LUC reporter) | transcriptional activity of Gal4-ERR3 ([5]; Gal4(5×)-TATA-LUC reporter, 10^−6M 4-OHT) | conformational change of the ERR3 LBD (migration on native gels) [6] | disruption of the ERR3 LBD/GST-SRC-1 RID complex ([6]; native polyacrylamide gradient gel) | disruption of the mutant ERR3 LBD/GST-SRC-1 RID complex ([7]; mutant F435L) | disruption of the mutant ERR3 LBD/GST-SRC-1 RID complex ([7]; mutants A272F or A272L) | antagonist action on mutant ERR3 LBD in vitro ([7]; mutants F435L, L345I-F435L, L345I-F435L-F450L) | effect on ERR3 transcriptional activity [8] | effect on ERRα basal activity [9] | activation of ERR1 F328A mutant [10]
1 | 4-hydroxytamoxifen [4-OHT] | but not of Gal4-ERR3(A272F) or Gal4-ERR3(A272L) | antagonizes the transcriptional activity | does not actively repress transcription of the TK promoter | binds both ERR2 and ERR3 | does not bind ERR1; also recorded: binds to ERR2 and ERR3 but not to ERR1 | submicromolar | neither 4-OHT nor DES repress the constitutive activity of Gal4-ERR3 below basal levels | blocked efficiently | significant conformational change | specifically disrupted | still disrupted | no effect is observed | still acts as an antagonist | repressed transactivation; also recorded: selectively block the transcriptional activity of ERR3 |  | 
2 | ClC1=C(Cl)C2(Cl)C3C(Cl)C(Cl)CC3C1(Cl)C2(Cl)Cl (centres unmarked) [chlordane] |  |  |  |  |  |  |  |  |  |  |  |  |  |  | decrease ERRα basal activity | 
3 | CC1(C)C(C(Cl)Cl)C2(Cl)C(Cl)C(Cl)C1(Cl)C2(Cl)Cl (centres unmarked) [toxaphene] |  |  |  |  |  |  |  |  |  |  |  |  |  |  | decrease ERRα basal activity | can be activated by toxaphene

From patent US20050208490A1, “Ligand binding pocket peptide fragment of estrogen-related receptor 3 (err3) and uses thereof” (priority 2002, published 2005)
